Results from ChEMBL document CHEMBL1667745, “Synthesis and antibacterial evaluation of novel clarithromycin derivatives with C-4″ elongated arylalkyl groups against macrolide-resistant strains” (2011).
In brackets after ≈: the same amount, converted by molar mass.

Tests used:
Type in all cases: functional
Streptococcus pyogenes [1] = experiment: Antimicrobial activity against erythromycin-susceptible Streptococcus pyogenes S2 by broth microdilution method
Streptococcus pneumoniae [2] = experiment: Antimicrobial activity against erythromycin-susceptible Streptococcus pneumoniae ATCC 49619 by broth microdilution method
Streptococcus pneumoniae [3] = experiment: Antimicrobial activity against erythromycin-resistant Streptococcus pneumoniae B1 expressing the erm gene by broth microdilution method
Staphylococcus aureus [4] = experiment: Antimicrobial activity against penicillin-susceptible Staphylococcus aureus P1 by broth microdilution method
Streptococcus pyogenes [5] = experiment: Antimicrobial activity against erythromycin-resistant Streptococcus pyogenes R2 by broth microdilution method
Streptococcus pneumoniae [6] = experiment: Antimicrobial activity against erythromycin-resistant Streptococcus pneumoniae A22072 expressing the mef gene by broth microdilution method
Staphylococcus aureus [7] = experiment: Antimicrobial activity against erythromycin-susceptible Staphylococcus aureus ATCC 25923 by broth microdilution method
Streptococcus pneumoniae [8] = experiment: Antimicrobial activity against erythromycin-resistant Streptococcus pneumoniae AB11 expressing the erm and mef gene by broth microdilution method

| SMILES | MIC (Streptococcus pyogenes [1]) [µg/mL] | MIC (Streptococcus pneumoniae [2]) [µg/mL] | MIC (Streptococcus pneumoniae [3]) [µg/mL] | MIC (Staphylococcus aureus [4]) [µg/mL] | MIC (Streptococcus pyogenes [5]) [µg/mL] | MIC (Streptococcus pneumoniae [6]) [µg/mL] | MIC (Staphylococcus aureus [7]) [µg/mL] | MIC (Streptococcus pneumoniae [8]) [µg/mL] |
| --- | --- | --- | --- | --- | --- | --- | --- | --- |
| CCCNC(=O)CCCNC(=O)O[C@H]1[C@H](C)O[C@@H](O[C@H]2[C@H](C)[C@@H](O[C@@H]3O[C@H](C)C[C@H](N(C)C)[C@H]3O)[C@](C)(OC)C[C@@H](C)C(=O)[C@H](C)[C@@H](O)[C@](C)(O)[C@@H](CC)OC(=O)[C@@H]2C)C[C@@]1(C)OC | 1 (≈ 1.09 µM) | 0.03 (≈ 0.0327 µM) | 128 (≈ 139 µM) | 32 (≈ 34.9 µM) | 32 (≈ 34.9 µM) | 4 (≈ 4.36 µM) | 0.25 (≈ 0.272 µM) | 128 (≈ 139 µM) |
| CCCCNC(=O)CCCNC(=O)O[C@H]1[C@H](C)O[C@@H](O[C@H]2[C@H](C)[C@@H](O[C@@H]3O[C@H](C)C[C@H](N(C)C)[C@H]3O)[C@](C)(OC)C[C@@H](C)C(=O)[C@H](C)[C@@H](O)[C@](C)(O)[C@@H](CC)OC(=O)[C@@H]2C)C[C@@]1(C)OC | 0.5 (≈ 0.536 µM) | 0.03 (≈ 0.0322 µM) | 128 (≈ 137 µM) | 8 (≈ 8.58 µM) | 16 (≈ 17.2 µM) | 8 (≈ 8.58 µM) | 0.25 (≈ 0.268 µM) | 128 (≈ 137 µM) |
| CCCCCNC(=O)CCCNC(=O)O[C@H]1[C@H](C)O[C@@H](O[C@H]2[C@H](C)[C@@H](O[C@@H]3O[C@H](C)C[C@H](N(C)C)[C@H]3O)[C@](C)(OC)C[C@@H](C)C(=O)[C@H](C)[C@@H](O)[C@](C)(O)[C@@H](CC)OC(=O)[C@@H]2C)C[C@@]1(C)OC | 0.5 (≈ 0.528 µM) | 0.03 (≈ 0.0317 µM) | 8 (≈ 8.45 µM) | 16 (≈ 16.9 µM) | 16 (≈ 16.9 µM) | 2 (≈ 2.11 µM) | 0.5 (≈ 0.528 µM) | 32 (≈ 33.8 µM) |
| CC[C@H]1OC(=O)[C@H](C)[C@@H](O[C@H]2C[C@@](C)(OC)[C@@H](OC(=O)NCCCCCC(=O)NCc3ccccc3)[C@H](C)O2)[C@H](C)[C@@H](O[C@@H]2O[C@H](C)C[C@H](N(C)C)[C@H]2O)[C@](C)(OC)C[C@@H](C)C(=O)[C@H](C)[C@@H](O)[C@]1(C)O | 0.12 (≈ 0.121 µM) | 0.03 (≈ 0.0302 µM) | 64 (≈ 64.4 µM) | 8 (≈ 8.05 µM) | 0.25 (≈ 0.251 µM) | 2 (≈ 2.01 µM) | 0.5 (≈ 0.503 µM) | 64 (≈ 64.4 µM) |
| CC[C@H]1OC(=O)[C@H](C)[C@@H](O[C@H]2C[C@@](C)(OC)[C@@H](OC(=O)NCCCCCC(=O)NCc3ccc(F)cc3)[C@H](C)O2)[C@H](C)[C@@H](O[C@@H]2O[C@H](C)C[C@H](N(C)C)[C@H]2O)[C@](C)(OC)C[C@@H](C)C(=O)[C@H](C)[C@@H](O)[C@]1(C)O | 0.03 (≈ 0.0296 µM) | 0.03 (≈ 0.0296 µM) | 2 (≈ 1.98 µM) | 32 (≈ 31.6 µM) | 0.25 (≈ 0.247 µM) | 0.5 (≈ 0.494 µM) | 0.25 (≈ 0.247 µM) | 4 (≈ 3.95 µM) |
| CC[C@H]1OC(=O)[C@H](C)[C@@H](O[C@H]2C[C@@](C)(OC)[C@@H](OC(=O)NCCCCCC(=O)NCc3ccc(OC)cc3)[C@H](C)O2)[C@H](C)[C@@H](O[C@@H]2O[C@H](C)C[C@H](N(C)C)[C@H]2O)[C@](C)(OC)C[C@@H](C)C(=O)[C@H](C)[C@@H](O)[C@]1(C)O | 0.12 (≈ 0.117 µM) | 0.03 (≈ 0.0293 µM) | 64 (≈ 62.5 µM) | 1 (≈ 0.976 µM) | 32 (≈ 31.2 µM) | 0.5 (≈ 0.488 µM) | 0.12 (≈ 0.117 µM) | 64 (≈ 62.5 µM) |
| CC[C@H]1OC(=O)[C@H](C)[C@@H](O[C@H]2C[C@@](C)(OC)[C@@H](OC(=O)NCCCCCC(=O)NCCc3ccc(O)cc3)[C@H](C)O2)[C@H](C)[C@@H](O[C@@H]2O[C@H](C)C[C@H](N(C)C)[C@H]2O)[C@](C)(OC)C[C@@H](C)C(=O)[C@H](C)[C@@H](O)[C@]1(C)O | 0.5 (≈ 0.488 µM) | 0.06 (≈ 0.0586 µM) | 64 (≈ 62.5 µM) | 1 (≈ 0.976 µM) | 64 (≈ 62.5 µM) | 8 (≈ 7.81 µM) | 0.25 (≈ 0.244 µM) | 64 (≈ 62.5 µM) |
| CC[C@H]1OC(=O)[C@H](C)[C@@H](O[C@H]2C[C@@](C)(OC)[C@@H](OC(=O)NCCCCCC(=O)NCCc3ccccc3Cl)[C@H](C)O2)[C@H](C)[C@@H](O[C@@H]2O[C@H](C)C[C@H](N(C)C)[C@H]2O)[C@](C)(OC)C[C@@H](C)C(=O)[C@H](C)[C@@H](O)[C@]1(C)O | 0.06 (≈ 0.0575 µM) | 0.03 (≈ 0.0288 µM) | 64 (≈ 61.4 µM) | 0.5 (≈ 0.48 µM) | 64 (≈ 61.4 µM) | 1 (≈ 0.959 µM) | 0.25 (≈ 0.24 µM) | 32 (≈ 30.7 µM) |
| CC[C@H]1OC(=O)[C@H](C)[C@@H](O[C@H]2C[C@@](C)(OC)[C@@H](OC(=O)NCCCCCC(=O)NC3CCCCC3)[C@H](C)O2)[C@H](C)[C@@H](O[C@@H]2O[C@H](C)C[C@H](N(C)C)[C@H]2O)[C@](C)(OC)C[C@@H](C)C(=O)[C@H](C)[C@@H](O)[C@]1(C)O | 0.12 (≈ 0.122 µM) | 0.03 (≈ 0.0304 µM) | 128 (≈ 130 µM) | 1 (≈ 1.01 µM) | 32 (≈ 32.4 µM) | 1 (≈ 1.01 µM) | 0.25 (≈ 0.253 µM) | 128 (≈ 130 µM) |
| CC[C@H]1OC(=O)[C@H](C)[C@@H](O[C@H]2C[C@@](C)(OC)[C@@H](OC(=O)NCCCCCC(=O)NC(C)C)[C@H](C)O2)[C@H](C)[C@@H](O[C@@H]2O[C@H](C)C[C@H](N(C)C)[C@H]2O)[C@](C)(OC)C[C@@H](C)C(=O)[C@H](C)[C@@H](O)[C@]1(C)O | 0.12 (≈ 0.127 µM) | 0.06 (≈ 0.0634 µM) | 128 (≈ 135 µM) | 1 (≈ 1.06 µM) | 32 (≈ 33.8 µM) | 8 (≈ 8.45 µM) | 0.25 (≈ 0.264 µM) | 128 (≈ 135 µM) |
| CCCNC(=O)CCCCCNC(=O)O[C@H]1[C@H](C)O[C@@H](O[C@H]2[C@H](C)[C@@H](O[C@@H]3O[C@H](C)C[C@H](N(C)C)[C@H]3O)[C@](C)(OC)C[C@@H](C)C(=O)[C@H](C)[C@@H](O)[C@](C)(O)[C@@H](CC)OC(=O)[C@@H]2C)C[C@@]1(C)OC | 0.03 (≈ 0.0317 µM) | 0.03 (≈ 0.0317 µM) | 128 (≈ 135 µM) | 2 (≈ 2.11 µM) | 16 (≈ 16.9 µM) | 4 (≈ 4.23 µM) | 0.5 (≈ 0.528 µM) | 128 (≈ 135 µM) |
| CCCCNC(=O)CCCCCNC(=O)O[C@H]1[C@H](C)O[C@@H](O[C@H]2[C@H](C)[C@@H](O[C@@H]3O[C@H](C)C[C@H](N(C)C)[C@H]3O)[C@](C)(OC)C[C@@H](C)C(=O)[C@H](C)[C@@H](O)[C@](C)(O)[C@@H](CC)OC(=O)[C@@H]2C)C[C@@]1(C)OC | 0.25 (≈ 0.26 µM) | 0.06 (≈ 0.0625 µM) | 128 (≈ 133 µM) | 8 (≈ 8.33 µM) | 8 (≈ 8.33 µM) | 1 (≈ 1.04 µM) | 0.25 (≈ 0.26 µM) | 128 (≈ 133 µM) |
| CCCCCNC(=O)CCCCCNC(=O)O[C@H]1[C@H](C)O[C@@H](O[C@H]2[C@H](C)[C@@H](O[C@@H]3O[C@H](C)C[C@H](N(C)C)[C@H]3O)[C@](C)(OC)C[C@@H](C)C(=O)[C@H](C)[C@@H](O)[C@](C)(O)[C@@H](CC)OC(=O)[C@@H]2C)C[C@@]1(C)OC | 0.25 (≈ 0.257 µM) | 0.03 (≈ 0.0308 µM) | 128 (≈ 131 µM) | 8 (≈ 8.21 µM) | 16 (≈ 16.4 µM) | 4 (≈ 4.11 µM) | 0.5 (≈ 0.513 µM) | 128 (≈ 131 µM) |
| CC[C@H]1OC(=O)[C@H](C)[C@@H](O[C@H]2C[C@@](C)(OC)[C@@H](O)[C@H](C)O2)[C@H](C)[C@@H](O[C@@H]2O[C@H](C)C[C@H](N(C)C)[C@H]2O)[C@](C)(O)C[C@@H](C)CN(C)[C@H](C)[C@@H](O)[C@]1(C)O [AZITHROMYCIN] | 0.03 (≈ 0.0401 µM) | 0.03 (≈ 0.0401 µM) | 128 (≈ 171 µM) | 0.12 (≈ 0.16 µM) | 8 (≈ 10.7 µM) | 4 (≈ 5.34 µM) | 0.25 (≈ 0.334 µM) | 256 (≈ 342 µM) |
| CC[C@H]1OC(=O)[C@H](C)[C@@H](O[C@H]2C[C@@](C)(OC)[C@@H](O)[C@H](C)O2)[C@H](C)[C@@H](O[C@@H]2O[C@H](C)C[C@H](N(C)C)[C@H]2O)[C@](C)(OC)C[C@@H](C)C(=O)[C@H](C)[C@@H](O)[C@]1(C)O [CLARITHROMYCIN] | 0.03 (≈ 0.0401 µM) | 0.03 (≈ 0.0401 µM) | 64 (≈ 85.6 µM) | 0.03 (≈ 0.0401 µM) | 4 (≈ 5.35 µM) | 4 (≈ 5.35 µM) | 0.12 (≈ 0.16 µM) | 128 (≈ 171 µM) |
| CC[C@H]1OC(=O)[C@H](C)[C@@H](O[C@H]2C[C@@](C)(OC)[C@@H](O)[C@H](C)O2)[C@H](C)[C@@H](O[C@@H]2O[C@H](C)C[C@H](N(C)C)[C@H]2O)[C@](C)(O)C[C@@H](C)C(=O)[C@H](C)[C@@H](O)[C@]1(C)O [ERYTHROMYCIN] | 0.03 (≈ 0.0409 µM) | 0.03 (≈ 0.0409 µM) | 128 (≈ 174 µM) | 0.25 (≈ 0.341 µM) | 4 (≈ 5.45 µM) | 8 (≈ 10.9 µM) | 0.25 (≈ 0.341 µM) | 256 (≈ 349 µM) |
